Reference: patent publication US9605027B2, “Polypeptides that bound to IL-23 receptor and inhibit binding of IL-23 and cell signaling thereof” (Medical Diagnostic Laboratories, LLC, priority 2011, dated 2017)
Peptide text beside a SMILES is read from it.

Experiments:
mouse IL-23R = biological target: T1, mouse IL-23R (Mus musculus, UniProt Q8K4B4); assay: Competitive mouse ELISA, mouse IL-23 binding to mouse IL-23R; conditions: mouse IL-23 / mouse IL-23R-Fc; read-out: IC50, Competitive ELISA in mouse system
T1 sequence (Q8K4B4 24-644): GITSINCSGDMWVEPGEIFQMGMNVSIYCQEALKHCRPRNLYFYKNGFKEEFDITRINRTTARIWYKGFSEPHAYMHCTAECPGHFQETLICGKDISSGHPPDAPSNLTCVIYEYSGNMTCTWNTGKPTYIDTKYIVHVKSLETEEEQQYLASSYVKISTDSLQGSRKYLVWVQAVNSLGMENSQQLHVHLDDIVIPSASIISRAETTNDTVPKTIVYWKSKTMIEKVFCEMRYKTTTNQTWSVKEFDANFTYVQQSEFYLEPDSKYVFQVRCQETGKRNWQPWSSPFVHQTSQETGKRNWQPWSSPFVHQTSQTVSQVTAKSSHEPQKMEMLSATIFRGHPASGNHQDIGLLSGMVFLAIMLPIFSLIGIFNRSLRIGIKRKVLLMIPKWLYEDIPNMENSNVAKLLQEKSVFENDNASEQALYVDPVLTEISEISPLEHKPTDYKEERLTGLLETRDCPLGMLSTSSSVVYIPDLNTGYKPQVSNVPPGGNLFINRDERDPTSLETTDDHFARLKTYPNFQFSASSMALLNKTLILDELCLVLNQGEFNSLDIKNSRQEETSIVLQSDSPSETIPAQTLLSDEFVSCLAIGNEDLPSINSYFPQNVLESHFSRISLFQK
Source text: In this study, we tested if the cyclic polypeptide no. 23.15, cyclic polypeptide no. 23.19 and the isolated polypeptide 23.15-Fc fusion protein could inhibit binding of mouse IL-23 to mouse IL-23R. Mouse IL-23 (p19 Gene Accession #: NM_031252; p40 Gene Accession #: NM_008352), the sequence of which is incorporated herein by reference. Mouse IL-23R (Gene Accession #: NM_144548), the sequence of which is incorporated herein by reference. To do so, we performed the Competitive ELISA.
FIG. 46 is a schematic depiction of the Competitive ELISA in mouse. Recombinant mouse IL-23R-Fc (2 μg/ml) was coated onto microtiter plates as a capture reagent. Mouse IL-23 and polypeptide or isolated peptide-Fc fusion protein were added to compete for binding to the immobilized mouse IL-23R-Fc. Mouse IL-23 that bound to mouse IL-23R-Fc was detected using biotinylated anti-p40 antibody (1:250). The bound anti-p40 antibody was detected using streptavidin-horseradish peroxidase (HRP) (1:500) and 100 μl/well of a tetramethylbenzidine (TMB) substrate was added to measure peroxidase activity. The color was measured at optical density (OD) 450nm. The color intensity was directly proportional to the amount of the bound mouse IL-23 protein.
The isolated polypeptide no. 23.15-Fc fusion protein, cyclic polypeptide no. 23.19 and polypeptide no. […] The IC50 values were calculated.

[1] = test system: IL-23 induced IL-17F in rat splenocytes; assay: IL-17F mRNA expression induced by IL-23 in rat splenocytes; type: cell-based; conditions: IL-23 200 ng/ml, qRT-PCR; read-out: IC50, inhibition of IL-17F mRNA expression
Description: Sprague Dawley (SD) rat spleen was isolated and placed in 3 ml of media (RPMI 1640 with 10% FBS) in a small petri dish (35×10 mm). The rat spleen was placed on a sterile wire mesh screen using sterile forceps. The rat spleen was pushed through the screen with the plunger of a 10 ml syringe into the petri dish. Then, the suspension was mixed by gently pipetting up and down. The cells were spun down at 1,000 rpm for 10 minutes. Red blood cells were lysed by adding a Red Blood Cell lysis buffer. The cell suspension was incubated at room temperature for 5 minutes. The cells were spun down at 1,000 rpm for 10 minutes. The pelleted splenocytes were washed twice with PBS. After washing, the isolated splenocytes were re-suspended in 10 ml of culture media (RPMI 1640 with 10% FBS).
Rat splenocytes (2.5×10^6 cells/ml) were prepared and cultured in RPMI-1640 with 10% FBS for 16 hours at 37° C. Cyclic peptide no. […] The stimulation was carried out for an additional 4 hours. mRNA expression of IL-17F was measured by qRT-PCR (rat IL-17F forward primer (GGC-TCC-TGT-GAA-ACA-ACC-AT)(SEQ ID NO: 180) and rat IL-17F reverse primer (ACA-GAA-ATG-CCC-TGG-TTT-TG) (SEQ ID NO: 181). The PCR was performed under the following conditions: 95° C. for 5 minutes, 95° C. for 30 seconds, 60° C. for 30 seconds 72° C. for 30 seconds, times 40 cycles. […]

Structure (SMILES) | IC50 (mouse IL-23R) | IC50 [1]
CSCC[C@@H]1NC(=O)[C@H](C)NC(=O)[C@@H](N)CSSC[C@@H](C(=O)O)NC(=O)[C@H](CCCNC(=N)N)NC(=O)CNC(=O)[C@H](Cc2ccc(O)cc2)NC(=O)[C@H](CC(C)C)NC(=O)[C@H](Cc2c[nH]c3ccccc23)NC(=O)[C@H](Cc2ccc(O)cc2)NC(=O)[C@H](CC(=O)O)NC(=O)[C@H](CCC(N)=O)NC(=O)[C@H](Cc2c[nH]c3ccccc23)NC(=O)[C@H]([C@@H](C)O)NC1=O [23.19] | 12.5 µM | –
CSCC[C@@H]1NC(=O)[C@H](CCCCN)NC(=O)[C@H](C)NC(=O)[C@H](C)NC(=O)[C@H](CS)NC(=O)[C@H](CC(N)=O)NC(=O)[C@H](CCCCN)NC(=O)[C@H](CC(C)C)NC(=O)[C@H](Cc2c[nH]c3ccccc23)NC(=O)[C@H](Cc2ccc(O)cc2)NC(=O)[C@H](CC(=O)O)NC(=O)[C@H](C(C)C)NC(=O)[C@H](Cc2c[nH]c3ccccc23)NC(=O)[C@H]([C@@H](C)O)NC1=O [2HT AA] (cyclo(AAKMTWVDYWLKNC)) | – | 0.27 µM
